The values below come from patent publication US12708116B2, “Herbicidal compositions comprising 2,4-D” (BASF SE, priority 2023, dated 2026).

Assay in all cases: Post-emergence application in field trials
In one experiment the test system is ECHCG. It counts as in vivo, Echinochloa crus-galli.
The subject of the next experiment is ZEAMX. Particulars: growth stage 15-16.
The next experiment relates to HORVW. Particulars: growth stage 23-29, height 20-25 cm.
Another experiment has as its system SETVI. It counts as in vivo, Setaria viridis. Particulars: 15 DAT; g ai/ha A-1 12.5, B-5 1066, C-10 840; growth stage 13-19; height 2-18 cm; water volume 140 l/ha.
For another experiment, the system named is DIGSA.
A further experiment has as its system AMAPA. The note with it: 14 DAT, growth stage 12-24, height 5-30 cm, water volume 140 l/ha.
Another experiment has as its system CYPES. The note with it: 21 DAT, water volume 140 l/ha.
A further experiment relates to SETVE. Particulars: Example 6, g ai/ha A-1 12.5, B-5 1066, C-11 400, growth stage 21-23, height 10-15 cm.
The subject of the next experiment is DATST. The note with it: Example 6; 21 DAT; g ai/ha A-1 12.5, B-5 1066, C-11 400.
Setting [1] is: Example 7, 28 DAT, g ai/ha A-1 12.5, B-4 1066, C-11 400, growth stage 23-30, height 15-20 cm.
[2] abbreviates: Example 9, 28 DAT, g ai/ha A-1 12.5, B-4 1066, C-12 252, growth stage 23-30, height 15-20 cm.
[3] abbreviates: Example 7, 28 DAT, g ai/ha A-1 12.5, B-4 1066, C-11 400, height 50-60 cm.
The mark [4] stands for this setting: Example 9, 28 DAT, g ai/ha A-1 12.5, B-4 1066, C-12 252, height 50-60 cm.
Where [5] appears, read: Example 11, 21 DAT, g ai/ha A-1 12.5, B-4 1066, C-4 12.5, height 50-60 cm.
Setting [6] is: Example 7, 28 DAT, g ai/ha A-1 12.5, B-4 1066, C-11 400.
Setting [7] is: Example 9, 21 DAT, g ai/ha A-1 12.5, B-4 1066, C-12 252.
[8] abbreviates: Example 11, 21 DAT, g ai/ha A-1 12.5, B-4 1066, C-4 12.5.

`CNC.O=C(O)COc1ccc(Cl)cc1Cl` [B-4, 2,4-D-dimethylammonium]: the “% Herbicidal activity” value with ECHCG (setting [1]) is given as 0%; in the experiment on ECHCG (setting [2]) it was 0%; in the experiment with ZEAMX (Example 5, 21 DAT, g ai/ha A-1 12.5, B-4 1066, height 50-60 cm) it was 0%; in the experiment with ZEAMX (setting [3]), 0%; in the experiment with ZEAMX (setting [4]) it was 0%; in the experiment with ZEAMX (setting [5]), 0%. Besides, the “% Herbicidal activity” value in the experiment on HORVW (Example 5, 7 DAT, g ai/ha A-1 12.5, B-4 1066) is recorded as 0%; in the experiment with HORVW (setting [6]), 0%; in the experiment on HORVW (setting [7]), 0%; in the experiment on HORVW (setting [8]), 0%.

As to `C#CCN1C(=O)C(F)(F)Oc2cc(F)c(-n3c(=O)n(C)c(=S)n(C)c3=O)cc21` [C-4, trifludimoxazin], the “% Herbicidal activity” value in the experiment on ECHCG (Example 10, 21 DAT, g ai/ha A-1 12.5, B-5 1066, C-4 12.5, growth stage 23-30, height 15-20 cm) is 30%; in the experiment on ZEAMX (setting [5]), 30%; in the experiment with HORVW (Example 10, 21 DAT, g ai/ha A-1 12.5, B-5 1066, C-4 12.5), 30%; in the experiment with HORVW (setting [8]), 20%.

Consider `O=C(O)CNCP(=O)(O)O` [C-10, glyphosate-potassium], for which the “% Herbicidal activity” value with SETVI is on record as 93%; in the experiment with ECHCG (13 DAT, g ai/ha A-1 12.5, B-5 1066, C-10 840, growth stage 21-26, height 15-30 cm, water volume 187 l/ha), 90%; in the experiment with ECHCG (13 DAT, g ai/ha A-1 25, B-5 1066, C-10 840, growth stage 21-26, height 15-30 cm, water volume 187 l/ha) it was 90%; in the experiment on ECHCG (13 DAT, g ai/ha A-1 50, B-5 1066, C-10 840, growth stage 21-26, height 15-30 cm, water volume 187 l/ha), 90%; with DIGSA (15 DAT, g ai/ha A-1 12.5, B-5 1066, C-10 840, growth stage 13-19, height 2-13 cm, water volume 140 l/ha), 93%; in the experiment with AMAPA (g ai/ha A-1 12.5, B-5 1066, C-10 840) it was 22%. In the experiment on AMAPA (g ai/ha A-1 25, B-5 1066, C-10 840), the “% Herbicidal activity” value was 22%.

As to `CP(=O)(O)CCC(N)C(=O)O` (centres unmarked) [C-11, glufosinate-ammonium], the “% Herbicidal activity” value in the experiment on ECHCG (Example 6, 7 DAT, g ai/ha A-1 12.5, B-5 1066, C-11 400, growth stage 23-30, height 15-20 cm) stood at 30%; in the experiment on ECHCG (Example 6, 28 DAT, g ai/ha A-1 12.5, B-5 1066, C-11 400, growth stage 23-30, height 15-20 cm), 70%; in the experiment on ECHCG (setting [1]) it was 60%; with CYPES (g ai/ha A-1 12.5, B-5 1066, C-11 655), 18%; in the experiment with CYPES (g ai/ha A-1 50, B-5 1066, C-11 655), 18%; in the experiment on DIGSA (21 DAT, g ai/ha A-1 12.5, B-5 1066, C-11 655, height 2-8 cm, water volume 140 l/ha) it was 49%. For the same molecule, the “% Herbicidal activity” value was 49% with DIGSA (21 DAT, g ai/ha A-1 25, B-5 1066, C-11 655, height 2-8 cm, water volume 140 l/ha); 49% in the experiment on DIGSA (21 DAT, g ai/ha A-1 50, B-5 1066, C-11 655, height 2-8 cm, water volume 140 l/ha); 25% in the experiment on DIGSA (Example 6, 7 DAT, g ai/ha A-1 12.5, B-5 1066, C-11 400, growth stage 21-22, height 15-20 cm); 20% in the experiment with DIGSA (Example 6, 21 DAT, g ai/ha A-1 12.5, B-5 1066, C-11 400, growth stage 21-22, height 15-20 cm); 55% in the experiment on SETVE (7 DAT); 40% in the experiment on SETVE (21 DAT). Moreover, the “% Herbicidal activity” value in the experiment on DATST was 50%; in the experiment with ZEAMX (Example 6, 7 DAT, g ai/ha A-1 12.5, B-5 1066, C-11 400, height 25-30 cm), 40%; in the experiment with ZEAMX (Example 6, 28 DAT, g ai/ha A-1 12.5, B-5 1066, C-11 400, height 50-60 cm), 70%; with ZEAMX (setting [3]) it was 40%; in the experiment on HORVW (Example 6, 28 DAT, g ai/ha A-1 12.5, B-5 1066, C-11 400), 30%; with HORVW (setting [6]), 10%.

As to `CP(=O)(O)CC[C@H](N)C(=O)O.N` [C-12, glufosinate-P-ammonium], the “% Herbicidal activity” value stood at 50% with ECHCG (Example 8, 7 DAT, g ai/ha A-1 12.5, B-5 1066, C-12 252, growth stage 23-30, height 15-20 cm); 70% in the experiment with ECHCG (Example 8, 21 DAT, g ai/ha A-1 12.5, B-5 1066, C-12 252, growth stage 23-30, height 15-20 cm); 60% in the experiment with ECHCG (Example 8, 28 DAT, g ai/ha A-1 12.5, B-5 1066, C-12 252, growth stage 23-30, height 15-20 cm); 60% in the experiment with ECHCG (setting [2]); 70% in the experiment with ZEAMX (Example 8, 28 DAT, g ai/ha A-1 12.5, B-5 1066, C-12 252, height 50-60 cm); 60% in the experiment with ZEAMX (setting [4]). Moreover, the “% Herbicidal activity” value in the experiment on HORVW (Example 8, 21 DAT, g ai/ha A-1 12.5, B-5 1066, C-12 252) is 20%; in the experiment on HORVW (setting [7]) it was 60%.
